Measurements from patent publication US20070117857A1, “Substituted 3-amido-tetrahydro-indazolyl cannabinoid modulators” (priority 2005, published 2007).

Legend:
human CB1 receptor [1] = target: T1, human CB1 receptor (Homo sapiens, UniProt P21554); assay: Functional cell-based assay, CB1 receptor mediated change in CRE β-gal expression; set-up: expressed in transfected cells; host or cells: SK-N-MC cells; conditions: SK-N-MC cells with CRE β-gal and human CB1; forskolin treated; β-galactosidase activity; read-out: EC50 value for functional activity as a CB1 receptor functional inverse agonist
T1 sequence (P21554 whole entry): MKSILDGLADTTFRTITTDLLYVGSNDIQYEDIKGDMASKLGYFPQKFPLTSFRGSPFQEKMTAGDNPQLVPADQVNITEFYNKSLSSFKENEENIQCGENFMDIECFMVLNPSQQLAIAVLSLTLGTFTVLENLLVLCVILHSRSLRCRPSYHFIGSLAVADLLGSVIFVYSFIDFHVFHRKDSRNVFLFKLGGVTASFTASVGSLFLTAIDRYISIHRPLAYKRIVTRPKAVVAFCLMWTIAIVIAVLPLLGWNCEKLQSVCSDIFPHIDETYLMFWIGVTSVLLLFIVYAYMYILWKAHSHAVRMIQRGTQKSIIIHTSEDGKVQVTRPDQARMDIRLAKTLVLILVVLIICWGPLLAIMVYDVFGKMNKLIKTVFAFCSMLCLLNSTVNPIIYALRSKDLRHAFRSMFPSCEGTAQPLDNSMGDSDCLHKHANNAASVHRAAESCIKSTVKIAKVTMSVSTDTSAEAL
Source text: The CB1 and CB2.receptors are G-protein coupled receptors (GPCR) that influence cell function via the Gi-protein. These receptors modulate the activity of intracellular adenylate cyclase, which in turn produces the intracellular signal messenger cyclic-AMP (cAMP).
At baseline, or during non-ligand bound conditions, these receptors are constitutively active and tonically suppress adenylate cyclase activity. The binding of an agonist causes further receptor activation and produces additional suppression of adenylate cyclase activity. The binding of an inverse agonist inhibits the constitutive activity of the receptors and results in an increase in adenylate cyclase activity.
Test compounds were evaluated in SK-N-MC cells which, using standard transfection procedures, were stably transfected with human cDNA for pcDNA3-CRE β-gal and pcDNA3 CB1 receptor (human) or pcDNA3 CB2 receptor (human). By expressing CRE β-gal, the cells produced β-galactosidase in response to CRE promoter activation by cAMP. Cells expressing CRE β-gal and either the human CB1 or CB2 receptor will produce less β-galactosidase when treated with a CB1/CB2 agonist and will produce more β-galactosidase when treated with a CB1/CB2 inverse agonist.
The cells were grown in 96-well plates under standard cell culture conditions at 37° C. in a 5% CO2 atmosphere. After 3 days, the media was removed and a test compound in media (wherein the media was supplemented with 2 mM L-glutamine, […] sodium pyruvate, 0.1% low fatty acid FBS (fetal bovine serum) and antibiotics) was added to the cell. The plates were incubated for 30 minutes at 37° C. and the plate cells were then treated with forskolin over a 4-6 hour period, then washed and lysed. The β-galactosidase activity was quantitated using commercially available kit reagents (Promega Corp. Madison, Wis.) and a Vmax Plate Reader (Molecular Devices, Inc).
For cells expressing CRE β-gal and the CB1 receptor, CB1 agonists reduced β-galactosidase activity in a dose-dependent manner and CB1 inverse agonists increased β-galactosidase activity in a dose-dependent manner.
The change in β-galactosidase activity was determined by setting a vehicle treated cell's activity value at 100% and expressing the β-galactosidase activity measured in a corresponding compound treated cell as a percent of the vehicle treated cell activity.
The EC50 value for functional activity for compounds tested was calculated by linear regression and was obtained from studies in which varying compound concentrations were used.

human CB1 receptor [2] = target: T1, human CB1 receptor; assay: Binding assay for CB1 agonists or inverse agonists ([3H]-CP-55,940 displacement); set-up: expressed in transfected cells; host or cells: SK-N-MC cells (semi-purified membrane pellet); conditions: test concentration of 0.2 μM; membranes of SK-N-MC cells expressing human CB1
Method: (§1) The human CB1 and CB2 receptors were stably expressed in SK-N-MC cells transfected with pcDNA3 CB1 (human) or pcDNA3 CB-2 (human). The cells were grown in T-180 cell culture flasks under standard cell culture conditions at 37° C. in a 5% CO2 atmosphere. The cells were harvested by trysinization and homogenized in a homogenization buffer (10 mM Tris, 0.2 mM MgCl2, 5 mM KCl, with protease inhibitors aprotinin, leupeptin, pepstatin A and bacitracin) and centrifuged (2000 g). The supernatant was then centrifuged in 2M sucrose (31,300 g) to produce a semi-purified membrane pellet. The pellet was resuspended in homogenization and stored at −80° C.
(§2) On the day of the assay, the pellet was thawed on ice and diluted in assay buffer (50 mM Tris-HCl, 5 mM MgCl2, 2.5 mM EDTA, 0.5 mg/mL fatty acid free bovine serum albumin, pH 7.5). […] Non-specific binding was measured in wells containing WIN 55,212 (10 uM). […] The Unifilter plate was dried, a scintillation cocktail was added to each well and the counts representing binding were quantitated in a TopCount scintillation counter.
(§3) For compounds tested, an IC50 binding value was obtained from percent inhibition studies in which various test concentrations were used. The binding value was calculated by linear regression. […]

human CB2 receptor = target: T2, human CB2 receptor (Homo sapiens, UniProt P34972); assay: Binding assay for CB2 agonists or inverse agonists ([3H]-CP-55,940 displacement); conditions: test concentration of 0.2 μM; membranes of SK-N-MC cells expressing human CB2
T2 construct: expressed in transfected cells; host or cells: SK-N-MC cells (semi-purified membrane pellet)
T2 sequence (P34972 whole entry): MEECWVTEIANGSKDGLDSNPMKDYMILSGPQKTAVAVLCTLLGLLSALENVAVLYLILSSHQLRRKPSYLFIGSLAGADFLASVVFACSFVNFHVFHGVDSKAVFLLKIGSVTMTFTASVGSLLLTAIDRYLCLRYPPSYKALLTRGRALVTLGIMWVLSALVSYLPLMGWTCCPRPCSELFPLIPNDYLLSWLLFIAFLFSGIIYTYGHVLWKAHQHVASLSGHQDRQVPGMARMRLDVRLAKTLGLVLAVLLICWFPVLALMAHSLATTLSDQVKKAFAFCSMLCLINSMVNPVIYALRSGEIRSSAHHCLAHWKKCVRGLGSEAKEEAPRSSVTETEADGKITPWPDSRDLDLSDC
Method: as §1, §2, §3

**Q.** With `O=C(NN1CCC(O)CC1)c1nn(-c2ccc(Cl)cc2Cl)c2c1CCC/C2=C\c1ccc(F)cc1` [Compound 1, (6E)-1-(2,4-dichloro-phenyl)-7-(4-fluoro-benzylidene)-4,5,6,7-tetrahydro-1H-indazole-3-carboxylic acid (4-hydroxy-piperidin-1-yl)-amide] as the molecule, how does the EC50 (human CB1 receptor [1]) read?
**A.** 40 nM

**Q.** `COC1CCN(NC(=O)c2nn(-c3ccc(Cl)cc3Cl)c3c2CCC/C3=C\c2ccc(F)cc2)CC1` [Compound 2, (7E)-1-(2,4-dichloro-phenyl)-7-(4-fluoro-benzylidene)-4,5,6,7-tetrahydro-1H-indazole-3-carboxylic acid(4-methoxy-piperidin-1-yl)-amide] was tested. Which EC50 (human CB1 receptor [1]) did it give?
**A.** 4 nM

**Q.** What does the source list for `O=C(NN1CCCCC1=O)c1nn(-c2ccc(Cl)cc2Cl)c2c1CCC/C2=C\c1ccc(F)cc1` [Compound 3, (7E)-1-(2,4-dichloro-phenyl)-7-(4-fluoro-benzylidene)-4,5,6,7-tetrahydro-1H-indazole-3-carboxylic acid(2-oxo-piperidin-1-yl)-amide]?
**A.** CB1 binding (human CB1 receptor [2]): 19%; CB2 binding (human CB2 receptor): 28%

**Q.** `C[N+]1(NC(=O)c2nn(-c3ccc(Cl)cc3Cl)c3c2CCC/C3=C\c2ccc(F)cc2)CCCCC1` [Compound 4, (7E)-1-{[1-(2,4-dichloro-phenyl)-7-(4-fluoro-benzylidene)-4,5,6,7-tetrahydro-1H-indazole-3-carbonyl]-amino}-1-methyl-piperidinium] was tested. Which EC50 (human CB1 receptor [1]) did it give?
**A.** 7.2 nM

**Q.** With `O=C(NN1C=CCCC1)c1nn(-c2ccc(Cl)cc2Cl)c2c1CCC/C2=C\c1ccc(F)cc1` [Compound 5, (7E)-1-(2,4-dichloro-phenyl)-7-(4-fluoro-benzylidene)-4,5,6,7-tetrahydro-1H-indazole-3-carboxylic acid(3,4-dihydro-2H-pyridin-1-yl)-amide] as the molecule, how does the EC50 (human CB1 receptor [1]) read?
**A.** 1.4 nM
